We go through 1 compound from PMC8176454, “Synthesis and Assessment of Novel Probes for Imaging Tau Pathology in Transgenic Mouse and Rat Models” (ACS Chemical Neuroscience, 2021).

The target of data set [1] is T1, tau aggregates in brain of P301S tau mice (Homo sapiens, UniProt P10636, P618S).
T1 construct: from tissue; host or cells: brain of transgenic P301S tau mice (C57Bl/6 background)
Put plainly: Ex vivo mouse study: i.v. injection, brain sections imaged after 1 h. The class given is in vivo. As for the experimental part: We next looked at the ability of LM229 to cross the blood–brain barrier (BBB), a key property of any viable neuro-radiotracer. LM229 was injected intravenously (i.v.) (1 mg/kg weight), and after 1 h, WT and P301S tau mice were perfused-fixed and brain sections were imaged under a fluorescence microscope. […] However, we await a comparison of PBB3 and LM229 by PET imaging to determine their relativity properties as in vivo imaging probes.
Mice were injected intravenously (i.v.) with 50 μM LM229 or PBB3 (DMSO) diluted in 50:50 ethanol/PBS. Animals were then perfused (4% PFA) 1 h post-i.v.

Data set [2] concerns the target T2, 4R tau151-391 aggregates in brainstem sections from SHR72 rats (Homo sapiens, UniProt P10636).
T2 construct: tissue AXON Neuroscience; host or cells: brain (brainstem) sections of SHR72 transgenic rats
Briefly: Binding to SHR72 transgenic rat brain sections. Particulars: 50 μM, colocalization with AT8. The text has this:
Since future PET studies for development of these compounds would require kinetic modeling for their assessment in vivo, we tested their performance in tau transgenic rats. Rat brains and blood volumes are about 6- and 10-fold larger, respectively, than those of mice and thus enable higher resolution imaging and ample volume for repeated blood sampling. We used two transgenic rat lines expressing human-truncated tau comprising the proline-rich region and either three microtubule binding domains (3R tau151-391, SH24)[28] or four microtubule binding domains (4R tau151-391, SHR72).[29] […] However, compared to the SHR24 rat brain sections, there were less inclusions detected, which seems to indicate the compounds have preferential binding toward the three repeat forms of tau in these rat models.
Fresh frozen rat brain coronal sections (10 μm) were stored on slides at −80 °C until use. Sections were fixed in ice cold acetone for 10 min and air-dried and then rehydrated twice for 5 min with buffer (10 mM PBS with 0.1% Triton X-100) before application of 5% bovine serum albumin for 1 h and two more 5 min buffer washes. […] The green autofluorescence of PBB3 and LM229 was visualized using a 488 nm filter and fluorescence of AT8 using a 568 nm filter on a Leica DM6000 microscope.

Data set [3] concerns the target tau aggregates in human globus pallidus/putamen from PSP subjects (Homo sapiens, UniProt P10636). Put plainly: Staining of post-mortem PSP brain tissue. Particulars: colocalized with AT8. As for the experimental part: To further validate LM229 as a potential radiotracer for translational research, we investigated its binding to tau aggregates in human globus pallidus/putamen from progressive supranuclear palsy (PSP) subjects (Figure 7) and its selectivity for tau over β-amyloid pathology in AD frontal cortex sections (Figure 8). […]
(§1) buffer) for 1 h at room temperature. Following 3 washes in PBS/0.1% Triton X-100, 50 µM LM229 (diluted in 1:1 blocking buffer/ethanol) was then added for 1 h at room temperature. Nuclei were stained with DAPI (0.1mg/ml for 10 min), washed and tissues mounted in FluorSaveTM prior to analysis using fluorescence […]
(§2) Binding affinity of all compounds with tau fibrils
Microscale Thermophoresis was first used to screen whether there were interaction between the compounds and tau fibrils. […] With each compound, two concentrations (1µM and 1nM) were used to mix with 100nM tau fibrils and then loaded to the MST instrument to read out the MST data curve. […]
DRG were incubated with the indicated concentrations of LM229 or PBB3 for 20 minutes at room temperature, washed 3 times in PBS, and imaged on a Leica DMI 4000B microscope using a Leica DFC3000 G camera and the Leica application suite 4.0.0.11706. Fluorescence intensity was measured in 10-16 neurons each from 3 independent cultures using Image J (imagej.nih.gov/ij/). […]

Data set [4] deals with tau (AT8) in AD frontal cortex sections (Homo sapiens, UniProt P10636). Put plainly: Staining of post-mortem AD frontal cortex sections, tau. As for the experimental part:
To further validate LM229 as a potential radiotracer for translational research, we investigated its binding to tau aggregates in human globus pallidus/putamen from progressive supranuclear palsy (PSP) subjects (Figure 7) and its selectivity for tau over β-amyloid pathology in AD frontal cortex sections (Figure 8).
In slices from frontal cortex of AD brains, LM229 gave rise to strong signal (Figure 8A), which colocalized with AT8 immunofluorescence (Figure 8B). […]
as §1, §2
Microscale Thermophoresis was first used to screen whether there were interaction between the compounds and tau fibrils. For this procedure 200 µL, 5 µM tau fibrils were mixed with 200 µL, 10 µM NT647-NHS dye and then incubated in dark for 30 minutes. Further dialysis (18 hours, changing the buffer after the first 4 hours) was used to remove the free dye giving a 2.5 µM solution of label led protein. […] With each compound, two concentrations (1µM and 1nM) were used to mix with 100nM tau fibrils and then loaded to the MST instrument to read out the MST data curve. […]

For data set [5], the target named is β-amyloid in AD frontal cortex sections (Homo sapiens, UniProt P05067). Put plainly: Staining of post-mortem AD frontal cortex sections, β-amyloid. From the text:
To further validate LM229 as a potential radiotracer for translational research, we investigated its binding to tau aggregates in human globus pallidus/putamen from progressive supranuclear palsy (PSP) subjects (Figure 7) and its selectivity for tau over β-amyloid pathology in AD frontal cortex sections (Figure 8). […] In slices from frontal cortex of AD brains, LM229 gave rise to strong signal (Figure 8A), which colocalized with AT8 immunofluorescence (Figure 8B).

“Also recorded” adds a separate entry of the source.

T1 sequence (P10636 1-383 isoform P10636-6 P243S): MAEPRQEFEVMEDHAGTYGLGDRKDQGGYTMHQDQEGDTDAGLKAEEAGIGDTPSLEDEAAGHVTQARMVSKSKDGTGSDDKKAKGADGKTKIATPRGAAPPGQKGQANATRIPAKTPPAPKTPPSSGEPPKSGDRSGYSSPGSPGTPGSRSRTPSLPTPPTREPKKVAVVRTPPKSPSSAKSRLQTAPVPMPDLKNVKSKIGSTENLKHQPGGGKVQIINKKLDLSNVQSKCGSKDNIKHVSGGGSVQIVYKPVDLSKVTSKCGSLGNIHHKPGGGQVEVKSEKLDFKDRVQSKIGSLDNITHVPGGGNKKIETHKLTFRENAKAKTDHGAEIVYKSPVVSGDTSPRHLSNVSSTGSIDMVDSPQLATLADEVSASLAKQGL
T2 sequence (P10636 468-708): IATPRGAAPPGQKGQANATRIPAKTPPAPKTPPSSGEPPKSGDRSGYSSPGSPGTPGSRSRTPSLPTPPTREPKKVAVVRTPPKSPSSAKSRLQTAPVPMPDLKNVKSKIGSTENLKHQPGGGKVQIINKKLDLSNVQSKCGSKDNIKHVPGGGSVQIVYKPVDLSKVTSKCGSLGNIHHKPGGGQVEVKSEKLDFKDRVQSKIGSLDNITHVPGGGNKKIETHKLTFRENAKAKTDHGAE
Sequence of β-amyloid in AD frontal cortex sections (P05067 672-711 limits assumed): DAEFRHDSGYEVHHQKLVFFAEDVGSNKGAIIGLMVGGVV
Sequence of tau (AT8) in AD frontal cortex sections (P10636 623-708 limits assumed): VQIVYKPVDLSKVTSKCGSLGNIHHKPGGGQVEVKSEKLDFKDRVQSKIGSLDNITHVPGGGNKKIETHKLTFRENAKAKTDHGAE
Sequence of tau aggregates in human globus pallidus/putamen from PSP subjects (P10636 561-698 limits assumed): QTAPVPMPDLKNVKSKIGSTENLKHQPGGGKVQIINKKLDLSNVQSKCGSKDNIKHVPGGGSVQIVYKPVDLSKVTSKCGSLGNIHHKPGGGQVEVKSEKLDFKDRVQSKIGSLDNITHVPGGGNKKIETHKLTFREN

On to `CNc1ccc(/C=C/C=C/c2nc3cc(F)c(O)cc3s2)cn1` [LM229], for which the “Blood–brain barrier crossing” value in data set [1] (i.v. 1 mg/kg, 1 h, fluorescence microscopy) is listed as “crosses the BBB”. Moreover, in data set [1] (i.v. injection 1 h prior, colocalization with AT8), the “Ex vivo binding in P301S tau brain tissue” value was “less non-specific binding and more specific binding to tau aggregates; also recorded: significant specific binding to tau aggregates”. In addition, the “Binding to tau in SHR72 rat brain sections” value in data set [2] is “bound to tau in brain sections from SHR72 rats”. In data set [3], the “Signal on PSP sections” value is “intense signal”. In addition, the “Signal on AD frontal cortex slices colocalized with AT8” value in data set [4] was “strong signal”. Moreover, the “Fluorescence intensity colocalized with Aβ relative to tau” value in data set [5] is “lower”.
